# From patent US11103488B2, “Methods of treating autoimmune, respiratory and inflammatory disorders by inhalation of roflumilast N-oxide” (Incozen Therapeutics Pvt. Ltd., priority 2013, dated 2021)
# Read-outs that look alike come from different tables or passages of the source.
# Assays:
# [1] = Lung microsome metabolic stability, rat; type: in vitro ADME; settings: rat lung microsomes, 1 μM test item, 60 minutes, NADPH
# Method: (§1) Metabolic stability studies were conducted using rat, dog and human lung microsomes. The protocol for the studies with rat, dog, and human lung microsomes (from Xenotech, USA) is provided below.
# (§2) 0.4 mg protein was preincubated with 2 mM NADPH (cofactor) in phosphate buffer (pH˜7.4) for 15 minutes at […] and then added with 1 μM test item and incubated further for 60 minutes in triplicate. The reaction mixture was terminated with methanol containing an internal standard and centrifuged further to analyze the test item remaining in the supernatant by LC-MS/MS. The percent parent compound remaining was calculated in comparison with similar samples terminated at 0 minutes.
# [2] = Lung microsome metabolic stability, dog; type: in vitro ADME; settings: dog lung microsomes, 1 μM test item, 60 minutes, NADPH
# Method: as §1, §2
# [3] = Lung microsome metabolic stability, human; type: in vitro ADME; settings: 1 μM test item, 60 minutes, NADPH
# Method: as §1, §2
# [4] = test system: neutrophil infiltration (LPS-induced neutrophilia in BALF); test: Lipopolysaccharide (LPS) induced pulmonary neutrophilia; type: in vivo, female Sprague-Dawley rat; settings: for ED50: Rattus norvegicus, Neutrophil, read-out: 50% inhibition (ED50) dose, neutrophil infiltration
# Method: Roflumilast was prepared as a suspension in a suitable vehicle for oral administration. For intratracheal administration, roflumilast or roflumilast N-oxide was prepared as a dry powder mixture and administered by using a dry powder Insufflator (Penn-Century, USA) Animals were anaesthetized with ketamine and LPS solution was administered intratracheally one hour after roflumilast (at a dose of 0.3, 1, 3, and 10 mg/kg orally), or 30 minutes after roflumilast (at a dose of 10, 30 and 100 μg/kg i.t) or roflumilast N-oxide administration (at a dose of 10, 30 and 100 μg/kg, i.t). 6 hours after LPS instillation, animals were exsanguinated under anaesthesia, and then trachea were cannulated and the lungs were lavaged with 5-ml aliquots of heparinised PBS (1 unit/ml) four times through tracheal cannula (total volume 20 ml). BAL (bronchoalveolar lavage) fluid was stored at 2-8° C. until assayed for total cell and differential leukocyte count. Bronchioalveolar fluid was centrifuged (500×g for 10 minutes) and the resulting cell pellet was resuspended in 0.5 ml of heparinized saline. The total number of white blood cells were determined in BAL fluid using a blood cell counter and were adjusted to 1×10^6 cell/ml. Differential cell count was calculated manually. One hundred microliters of the cell suspension was centrifuged using cytospin 3 to prepare a cell smear. The cell smear was stained with a blood staining solution for differentiation and slides were microscopically observed to identify eosinophil according to their morphological characteristics. The number of each cell type among 300 white blood cells in the cell smear was determined and expressed as a percentage. The total number of neutrophils in each BAL fluid was calculated.
# Roflumilast and roflumilast N-oxide were administered intratracheally (i.t) at doses of 100, 30, and 10 μg/kg as 1:200; 1:500; and 1:1000 drug:lactose blends, respectively.
# [5] = test system: macrophage infiltration; test: Acute cigarette smoke induced cell infiltration, macrophages; type: in vivo, female Balb/c mice; settings: for Percent inhibition in macrophage infiltration: oral, day 1 to day 4
# Method: (§3) Animals were acclimatized for seven days prior to the start of the experiment. The animals were randomly distributed to various groups based on their body weight. For oral administration of roflumilast and for intranasal administration of roflumilast N-oxide, roflumilast or roflumilast N-oxide were prepared as a suspension in a suitable vehicle. On day 1, mice were administered roflumilast N-oxide or roflumilast and after 1 hour, the animals were placed in a whole body exposure box. On day 1 and day 2, the mice were exposed to the mainstream smoke of 6 cigarettes, and 8 cigarettes on day 3 and day 4. Exposure to the smoke of each cigarette lasted for 10 minutes (cigarettes were completely burned in the first two minutes and followed by an air flow with animal ventilator, then 20 minutes exposure to fresh room air). After every second cigarette an additional break of 20 minutes with exposure to fresh room air was conducted. Control animals were exposed to room air chamber. From day 1 to day 4, the animals were administered roflumilast N-oxide or roflumilast. On day 5, 24 hours after the last cigarette smoke (CS) exposure, the animals were exsanguinated under anaesthesia, the trachea were cannulated and the lungs were lavaged with 0.5-ml aliquots of heparinised PBS (1 unit/ml) four times through tracheal cannula (total volume 2 ml). Bronchioalveolar (BAL) collected was stored at 2-8° C. until assayed for total cell and differential leukocyte count. BAL fluid was centrifuged (500×g for 10 minutes) and the resulting cell pellet was resuspended in 0.5 ml of heparinised saline. The total number of white blood cells was determined in BAL fluid and adjusted to 1×10^6 cell/ml. Differential cell count was calculated manually by diff-quick staining. Forty microliters of the cell suspension was centrifuged using cytospin 3 to prepare a cell smear. The cell smear was stained with a blood staining solution for differentiation and microscopically observed to identify cell type according to their morphological characteristics. The number of each cell type among 300 white blood cells in the cell smear were determined and expressed as a percentage, and the number of neutrophils and macrophages in each BAL fluid were calculated.
# (§4) Roflumilast and roflumilast N-oxide as a suspension in polysorbate 80 (1% v/v) and methyl cellulose (MC) (0.5% w/v) were used for oral and intranasal administration respectively.
# [6] = test system: neutrophil infiltration; test: Acute cigarette smoke induced cell infiltration, neutrophils; type: in vivo, female Balb/c mice; settings: for Percent inhibition in neutrophil infiltration: oral, day 1 to day 4
# Method: as §3, §4
# [7] = 7-day repeat dose safety study; type: in vivo, Wistar Rats
# Method: In order to determine the safety of roflumilast N-oxide by inhalation compared to roflumilast by oral administration, a 7- and 14-day repeat dose safety study was conducted according to the protocol given in Table 5 below.
# [8] = roflumilast n = 4438; count, second figure in brackets; cited from earlier work
compound,measurement,setting,value
O=C(Nc1c(Cl)cncc1Cl)c1ccc(OC(F)F)c(OCC2CC2)c1 [Roflumilast],"Percent Parent Compound Remaining, Rat",[1],97.1%
same,"Percent Parent Compound Remaining, Dog",[2],97.4%
same,"Percent Parent Compound Remaining, Human Non Smoker",[3]; human non smoker lung microsomes,99.8%
same,"Percent Parent Compound Remaining, Human Smoker",[3]; human smoker lung microsomes,98.8%
same,ED50,"[4]; inhaled or nasal, intratracheal administration",0.026 mg/kg
same,ED50,[4]; oral administration,1.8 mg/kg
same,Percent inhibition in neutrophil infiltration,"[4]; intratracheal dry powder, 10 μg/kg, 30 minutes before LPS",31.76%
same,Percent inhibition in neutrophil infiltration,"[4]; intratracheal dry powder, 30 μg/kg, 30 minutes before LPS",60.47%
same,Percent inhibition in neutrophil infiltration,"[4]; intratracheal dry powder, 100 μg/kg, 30 minutes before LPS",64.40%
same,Percent inhibition in neutrophil infiltration,"[4]; oral, 0.3 mg/kg, one hour before LPS, BAL 6 hours after LPS",−7.89%
same,Percent inhibition in neutrophil infiltration,"[4]; oral, 1 mg/kg, one hour before LPS, BAL 6 hours after LPS",43.46%
same,Percent inhibition in neutrophil infiltration,"[4]; oral, 3 mg/kg, one hour before LPS, BAL 6 hours after LPS",68.02%
same,Percent inhibition in neutrophil infiltration,"[4]; oral, 10 mg/kg, one hour before LPS, BAL 6 hours after LPS",92.21%
same,ED50,"[5]; Mus musculus, Macrophage, oral administration, read-out: 50% inhibition (ED50) dose, macrophage infiltration",3.5 mg/kg
same,Percent inhibition in macrophage infiltration,[5]; 1 mg/kg (b.i.d. per FIG. 4),22.2%
same,Percent inhibition in macrophage infiltration,[5]; 3 mg/kg (b.i.d. per FIG. 4),51.00%
same,Percent inhibition in macrophage infiltration,[5]; 10 mg/kg (b.i.d. per FIG. 4),69.11%
same,ED50,"[6]; Mus musculus, Neutrophil, oral administration, read-out: 50% inhibition (ED50) dose, neutrophil infiltration",1.75 mg/kg
same,Percent inhibition in neutrophil infiltration,[6]; 1 mg/kg (b.i.d. per FIG. 4),70.85%
same,Percent inhibition in neutrophil infiltration,[6]; 3 mg/kg (b.i.d. per FIG. 4),73.69%
same,Percent inhibition in neutrophil infiltration,[6]; 10 mg/kg (b.i.d. per FIG. 4),83.01%
same,MORTALITY,"[7]; Oral, 10 mg/Kg/day, 7 days",1M animal died on day 7
same,Multiple of ED50 at which toxic,"[7]; Wistar, rat, in vivo, 7 days",5.5 fold
same,Overall safety in repeat dose study,"[7]; rat, in vivo, po, 10 mg/kg",showed significant toxicity
same,CLINICAL CHEMISTRY,"[7]; rat, in vivo, po, 10 mg/kg/day","Yes, reduced serum"
same,CLINICAL SIGNS,"[7]; rat, in vivo, po, 10 mg/kg/day",Abnormal clinical
same,GROSS PATHOLOGY,"[7]; rat, in vivo, po, 10 mg/kg/day","Yes, treatment related"
same,HEMATOLOGY,"[7]; rat, in vivo, po, 10 mg/kg/day","Yes, elevated WBC"
same,AEs: Back pain,[8],142 (3.2)
same,AEs: Decreased appetite,[8],91 (2.1)
same,AEs: Diarrhoea,[8],420 (9.5)
same,AEs: Dizziness,[8],92 (2.1)
same,AEs: Headache,[8],195 (4.4)
same,AEs: Influenza,[8],124 (2.8)
same,AEs: Insomnia,[8],105 (2.4)
same,AEs: Nausea,[8],209 (4.7)
same,AEs: Weight loss,[8],331 (7.5)
